Experimental data: US20250263404A1, “AMINOPYRIDINES AS ACTIVATORS OF PI3 KINASE” (UCL Business Ltd, priority 2021, published 2025)

Experiments:
mice = assay: In vivo model of ischaemia reperfusion injury in mice; design: species or system mouse; details: 10 mg/kg via jugular vein
Protocol: Male C57/BL6 mice weighing 25-30 g were used throughout. Animals received humane care in accordance with the United Kingdom Home Office Guide on the Operation of Animal (Scientific Procedures) Act 1986, Project Licence PPL70/15358.
Animals were anaesthetised with intraperitoneal (i.p.) sodium pentobarbital at a dose of 100 mg/kg. The mice were intubated by tracheotomy and ventilated with room air using a small animal ventilator (MinVent, Type 845, Hugo Sachs Elektronik, Harvard Apparatus). The mice were then placed on a heating pad and the rectal temperature monitored and maintained at ˜37° C. using a temperature controller. During the experiments, both ECG and heart rate were continuously recorded using a PowerLab (Adinstrument, USA). […]
After 120 min reperfusion, the chest was re-opened, the heart was removed and cannulated via the thoracic aorta, and blood within the heart was washed out with saline. […] The total area of myocardium, the non-ischaemic area (which is stained with Evans blue), and the infarct area (i.e. the white area) of each slice were measured using Image-J software. The “area at risk” was calculated by subtraction of the non-ischaemic area (blue area) from the whole slice area and expressed as “percentage of the left ventricle”, and “infarct size” calculated as infarct area as a percentage of the area at risk. […]

[1] = test system: PIP3 levels in A549 cells; assay: PIP3 measurement by mass spectrometry in A549 cells; type: cell-based, human; details: 2 min
Protocol: FIG. 21. a, MEFs were stimulated for the indicated time points with 1938 (5 μM) or for 2 min with PDGF (20 ng/ml) or insulin (100 nM), followed by lipid extraction and PIP3 measurement by mass spectrometry. b, MEFs were stimulated for 2 min with increasing doses of 1938 or PDGF, followed by lipid extraction and PIP3 measurement by mass spectrometry. c, A549 cells were stimulated for 2 min with increasing doses of 1938 or insulin, or 10 ng/ml PDGF, followed by lipid extraction and PIP3 measurement by mass spectrometry. […] These maximal 1938-induced PIP3 levels are below those required to give rise to sufficient PI(3,4)P2 to be detectable by mass spectrometry, a conclusion also supported by the observation that substantial levels of PIP3 induced by lower doses of PDGF (e.g. 0.5 ng/ml) were also not sufficient to give rise to levels of PI(3,4)P2 detectable by mass. […] A strong PIP3 response was also observed with insulin in these cells, with no PIP3 induced by PDGF, in line with the absence of this receptor in epithelial cells, including in A549.

CCN1CCN(c2ccc(Nc3cc(Nc4cccc5c4N(C(C)=O)CC5)ccn3)cc2)CC1 [Example 1938]
pAKT^S473 levels in the hearts of mice (mice): corresponding increase in pAKT^S473 levels | cardioprotection in mice (mice; 15 min prior to reperfusion): significant cardioprotection | concentration at which PIP3 response maxed out [1]: 10 µM
